The source of these data is patent publication US20210253718A1, “FRIZZLED5 PROTEIN-BINDING AGENTS” (Modmab Therapeutics Corporation, priority 2016, published 2021).

The subject of experiment [1] is ASPC-1 cells. Briefly: Effect of anti-FZD5 Fabs on proliferation of pancreatic cancer cell lines (percent growth inhibition). Format: cell-based, human. Conditions: Fab 2 μg/ml.
In experiment [2] the target is T1, FZD6 CRD (Homo sapiens, UniProt O60353).
T1 construct: S20-P146; GPI anchor signal (C); expressed in transfected cells; host or cells: CHO cells, lentiviral pLenti-puro
T1 sequence (O60353 20-146): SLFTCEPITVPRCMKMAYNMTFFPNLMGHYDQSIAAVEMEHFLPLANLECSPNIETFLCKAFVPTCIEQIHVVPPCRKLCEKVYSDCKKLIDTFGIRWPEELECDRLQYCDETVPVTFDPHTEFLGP
In words: Flow cytometry of anti-FZD5 Fab binding to CHO cells overexpressing Frizzled CRD. On the procedure:
(§1) Plasmids: pLCKO lentiviral vector used for knockout (TKO) library construction and expression of individual gRNAs was constructed as described previously (Hart et al., 2015). Briefly, single guide RNA (sgRNA) scaffold was amplified from px330 (Addgene 42230) and cloned into pLKO.TRC005 lentiviral vector (Broad Institute, Cambridge, Mass.) using AgeI/EcoRI restriction sites. BfuAI sites were added at the 5′ end of the sgRNA scaffold for cloning the TKO library or individual gRNA target sequences. Lenti Cas9-2A-BsdR vector used to generate Cas9 stable expression cell lines was constructed as described previously (Hart et al., 2015). Briefly, lentiCRISPR pXPR_001 (Addgene 49535) was modified through removal of the sgRNA scaffold region through NdeI/EcoRI digest and blunt ends generation using Large Klenow Fragment (NEB). 2A-puro was replaced with 2A-BsdR by PCR using the NheI/MluI sites. Each of the 10 human Frizzled cysteine rich domains (CRDs) were cloned into the lentiviral expression plasmid pLenti-puro in the following cassette: FZD_CRD-MYC-GPI.
(§2) Flow cytometry: Primary staining of cells was performed by treatment with 200 nM Frizzled profiler Fab. Alexa Fluor 488 AffiniPure F(ab′)2 was used as the secondary antibody (Jackson ImmunoResearch #109-546-097). c-Myc (9E10) IgG1 (primary antibody, Santa Cruz, lot #D0306) and Alexa Fluor 488 IgG (secondary antibody, Life technologies, lot #1458649) were used as controls. Dead cells were excluded by staining with Fixable Viability Dye eFluor 660 (eBioscience, catalogue number 65-0864). All reagents were used as per manufacturer's instructions. Flow cytometry was performed on a BD FACSCanto II flow cytometer (BD Biosciences), and data were analyzed with FlowJo software (FlowJo, LLC).
(§3) To confirm that the FZD5-WNT7B circuit is not driven simply by expression and rule out the possibility of a disconnect between RNA and protein levels for the Wnt receptors in HPAF-II cells, a panel of recombinant Fabs were generated, alternatively referred to herein as ‘Frizzled profiler’, that can detect and discriminate all but one of the ten Frizzled receptors. […] To characterize the binding specificity of these Fabs on cells, a panel of 10 CHO cell lines was generated, each expressing the CRD domain of a different myc-tagged Frizzled family member anchored at the plasma membrane through a GPI anchor (CHO-myc-FZDGPI). Despite the high sequence identity between Frizzled family members (FIG. 7A, FIG. 7B), selective Fabs were identified for FZD4, FZD5, FZD6 and FZD10 as assessed by immunofluorescence and flow cytometry (FIG. 7D and FIG. 8). […] The FZD8 CRD is most homologous to that of FZD5 (FIG. 7B). These Fabs can be used to discriminate expression of FZD1, FZD2, FZD4, FZD5, FZD6, FZD7, FZD8, FZD9 and FZD10 (FIG. 7D and FIG. 8). The ‘Frizzled profiler’ therefore consists of 10 different Fabs that can be used to discriminate expression of 9 different Frizzled family members. The Frizzled profiler was then used to confirm that HPAF-II cells express FZD1, FZD5, FZD6 and possibly FZD8 (FIG. 7E).
(§4) The binding of anti-FZD5 Fabs to cell surface-expressed Frizzled protein was further determined for each member of the Frizzled family via flow cytometry and immunofluorescence analysis of a panel of 10 CHO cell lines, each ectopically over-expressing the extracellular cysteine-rich domain (CRD) of a different Frizzled protein family member.

Experiment [3] concerns the target T2, FZD4 CRD (Homo sapiens, UniProt Q9ULV1).
T2 construct: E42-V167; GPI anchor signal (C); expressed in transfected cells; host or cells: CHO cells, lentiviral pLenti-puro
T2 sequence (Q9ULV1 42-167): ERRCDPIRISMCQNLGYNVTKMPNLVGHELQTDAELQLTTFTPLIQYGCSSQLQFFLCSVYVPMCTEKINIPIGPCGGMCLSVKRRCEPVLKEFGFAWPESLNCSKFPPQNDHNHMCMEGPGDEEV
The description is as above. The procedure:
as §1, §2, §3, §4

Experiment [4] addresses T3, FZD5 CRD (Homo sapiens, UniProt Q13467).
T3 construct: K29-T156; GPI anchor signal (C); expressed in transfected cells; host or cells: CHO cells, lentiviral pLenti-puro
T3 sequence (Q13467 29-156): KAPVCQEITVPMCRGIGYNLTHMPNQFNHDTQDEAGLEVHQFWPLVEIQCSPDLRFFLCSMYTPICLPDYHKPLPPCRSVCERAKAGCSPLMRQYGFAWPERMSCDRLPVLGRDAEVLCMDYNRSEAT
Described as above. The procedure: as §1, §2, §3, §4

For experiment [5], the target named is T4, FZD9 CRD (Homo sapiens, UniProt O00144).
T4 construct: G35-A161; GPI anchor signal (C); expressed in transfected cells; host or cells: CHO cells, lentiviral pLenti-puro
T4 sequence (O00144 35-161): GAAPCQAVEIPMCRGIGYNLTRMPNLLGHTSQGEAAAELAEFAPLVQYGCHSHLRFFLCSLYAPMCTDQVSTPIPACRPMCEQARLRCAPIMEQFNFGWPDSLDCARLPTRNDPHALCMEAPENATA
The experiment is described as above. The procedure:
as §1, §2, §3, §4

For experiment [6], the target named is T5, FZD10 CRD (Homo sapiens, UniProt Q9ULW2).
T5 construct: 30-156; GPI anchor signal (C); expressed in transfected cells; host or cells: CHO cells, lentiviral pLenti-puro
T5 sequence (Q9ULW2 30-156): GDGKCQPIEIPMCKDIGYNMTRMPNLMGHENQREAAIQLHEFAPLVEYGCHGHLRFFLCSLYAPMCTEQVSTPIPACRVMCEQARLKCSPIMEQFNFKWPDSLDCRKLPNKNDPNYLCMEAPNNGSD
The description is as above. The procedure:
as §1, §2, §3, §4

Experiment [7] relates to HPAFII cells. In words: Effect of anti-FZD5 Fabs on proliferation of pancreatic cancer cell lines (percent growth inhibition). Format: cell-based, human. The procedure:
(§5) The effect of presently disclosed anti-FZD5 Fabs on proliferation of RNF43 loss-of-function mutant pancreatic cancer cell lines HPAFII, PATU8988S and ASPC-1; and on pancreatic cancer cell line RWP1, was tested at […] and 10 μg/ml.

The subject of experiment [8] is ASPC-1 cells. Described as above. Conditions: Fab 10 μg/ml. The class given is cell-based, human. The procedure:
as §5

Experiment [9] concerns PATU8988S cells. The experiment is described as above. Format: cell-based, human. The settings on record: Fab 10 μg/ml. On the procedure:
as §5

The subject of experiment [10] is RWP1 cells. The experiment is described as above. The class given is cell-based, human. The settings on record: Fab 10 μg/ml. The procedure: as §5

Turning to “Fab-2931: anti-FZD5 Fab with antibody variable region Fv-2931; CDR SEQ ID NOs: 35, 36, 70, 102, 146, 176 (CDR 1 QSVSSA; CDR 2 SAS; CDR 3 QQSSYSLIT; CDR 4 GFNLSYSS; CDR 5 ISPYSGST; CDR 6 ARGSYWYVGGGWWVSGHGGMDY)”, the “percent growth inhibition, ASPC-1 2 μg/ml” value in [1] is recorded as 10.33%. Also, in [2], the “Median fluorescence, Frizzled CRD overexpressed on CHO cells: FZD6” value worked out at 2.89. Moreover, the “Median fluorescence, Frizzled CRD overexpressed on CHO cells: FZD4” value in experiment [3] came to 3.65. For the same substance, the “Median fluorescence, Frizzled CRD overexpressed on CHO cells: FZD5” value in experiment [4] amounted to 28.13. For the same substance, in [5], the “Median fluorescence, Frizzled CRD overexpressed on CHO cells: FZD9” value stood at 2.76. In experiment [6], the “Median fluorescence, Frizzled CRD overexpressed on CHO cells: FZD10” value was found to be 2.59. Moreover, the “percent growth inhibition, HPAFII 2 μg/ml” value in experiment [7] (Fab 2 μg/ml) is listed as −19.38%. Further, the “percent growth inhibition, HPAFII 10 μg/ml” value in experiment [7] (Fab 10 μg/ml) turned out to be 11.37%. Further, the “percent growth inhibition, ASPC-1 10 μg/ml” value in experiment [8] is 39.20%. Moreover, the “percent growth inhibition, PATU8988s 10 μg/ml” value in experiment [9] was −17.27%. In experiment [10], the “percent growth inhibition, RWP1 10 μg/ml” value is 18.70%.
